The text below walks through data of patent US11111242B2, “Pyrrolo[2,3-d]pyrimidinyl, pyrrolo[2,3-b]pyrazinyl and pyrrolo[2,3-d]pyridinyl acrylamides” (Pfizer Inc., priority 2013, dated 2021).

SMILES strings stand for the structures. Where two headings read alike, the source gives them in different places.

Experiment [1] has as its system IL-15 induced STAT5 phosphorylation in Human Whole Blood (total lymphocytes). Description: HWB IL-15 Induced STAT5 Phosphorylation Assay. The class given is cell-based. The settings on record: Lymphocyte, IL-15 stimulated, read-out: HWB-IL15-pSTAT5 IC50. The method, then:
HWB IL-15 Induced STAT5 Phosphorylation Assay
After mixing and incubating for 45 minutes at 37° C., 5 μl D-PBS (unstimulated control) or 20× stocks of 5 μl human IL-15 (final concentration is 50 ng/ml) were added, and mixed three times. After incubating 15 minutes at 37° C., 1× Lyse/Fix Buffer (BD Phosflow 5× Lyse/Fix Buffer) was added to all wells at 1000 μl/well, then incubated for 20 minutes at 37° C. and spun 5 mins at 1200 rpm. […] Following incubating at 4° C. over night, all the samples were transferred to 96-well polypropylene U-bottom plate, and checked by flow cytometry gated on total lymphocytes.

The subject of experiment [2] is IL-15 induced P-STAT5 in human PBMC (total lymphocytes). Description: PBMC IL-15 Induced P-STAT5. The class given is cell-based. The settings on record: IL-15 stimulated, read-out: PBMC IL15-pSTAT5 IC50. The procedure, abridged:
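Thawed human PBMC in RPMI, preincubated 30 min at 37 °C, then IL-15 stimulated. Cells methanol-permeabilized (90%, on ice 20 min) and stained for phospho-STAT5. Read by flow cytometry, gated on total lymphocytes.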

For orientation: IC50 means the concentration at which inhibition is half-maximal. `C=CC(=O)N1C[C@H](Nc2ncnc3[nH]cc(Cl)c23)CC[C@@H]1C` [Example 18, 1-((2S,5R)-5-((5-Chloro-7H-pyrrolo[2,3-d]pyrimidin-4-yl)amino)-2-methylpiperidin-1-yl)prop-2-en-1-one]: the values for the IC50 in experiment [1] and in experiment [2] were 0.555 µM and 0.0315 µM, respectively.
The corresponding values for `C=CC(=O)N1C[C@H](Nc2ncnc3[nH]ccc23)C[C@H](OC)C1` [Example 19, 1-((3R,5S)-3-((7H-Pyrrolo[2,3-d]pyrimidin-4-yl)amino)-5-methoxypiperidin-1-yl)prop-2-en-1-one] are 0.505 µM and 0.139 µM.
Consider `C=CC(=O)N1CCC[C@@H](Nc2ncnc3[nH]cc(F)c23)C1` [Example 42, 1-{(3R)-3-[(5-fluoro-7H-pyrrolo[2,3-d]pyrimidin-4-yl)amino]piperidin-1-yl}prop-2-en-1-one], for which the IC50 in experiment [1] was found to be 0.819 µM; in experiment [2] (Homo sapiens, PBMC) it was 0.293 µM.
Regarding `C=CC(=O)N1CCC[C@@H](Nc2ncnc3[nH]cc(C)c23)C1` [Example 43, 1-{(3R)-3-[(5-methyl-7H-pyrrolo[2,3-d]pyrimidin-4-yl)amino]piperidin-1-yl}prop-2-en-1-one], the concentration for half-maximal inhibition (IC50) is 0.463 µM in experiment [1] and 0.116 µM in experiment [2].
Taken in the same sequence, the figures for `C=CC(=O)N1CCC[C@@H](Nc2ncnc3[nH]cc(CC)c23)C1` [Example 44, 1-{(3R)-3-[(5-ethyl-7H-pyrrolo[2,3-d]pyrimidin-4-yl)amino]piperidin-1-yl}prop-2-en-1-one] were 1.18 µM and 0.32 µM.
The corresponding values for `C=CC(=O)N1CCC[C@@H](Nc2ncnc3[nH]cc(C#N)c23)C1` [Example 45, 4-{[(3R)-1-acryloylpiperidin-3-yl]amino}-7H-pyrrolo[2,3-d]pyrimidine-5-carbonitrile] are 1.01 µM and 0.348 µM.
As to `C=CC(=O)N1CCC[C@@H](Nc2ncnc3[nH]cc(CCOC)c23)C1` [Example 46, 1-[(3R)-3-{[5-(2-methoxyethyl)-7H-pyrrolo[2,3-d]pyrimidin-4-yl]amino}piperidin-1-yl]prop-2-en-1-one], the IC50 in experiment [1] was determined as 0.359 µM; in experiment [2] (Homo sapiens, PBMC) it was 0.279 µM.
Taken in the same sequence, the figures for `C=CC(=O)N1CC[C@@H](F)[C@@H](Nc2ncnc3[nH]ccc23)C1` [Example 54, 1-((3S,4R)-3-((7H-Pyrrolo[2,3-d]pyrimidin-4-yl)amino)-4-fluoropiperidin-1-yl)prop-2-en-1-one] were 0.366 µM and 0.222 µM.
On to `C=CC(=O)N1C[C@H](Nc2ncnc3[nH]ccc23)C[C@H](N(C)C)C1` [Example 57, 1-((3R,5S)-3-((7H-Pyrrolo[2,3-d]pyrimidin-4-yl)amino)-5-(dimethylamino)piperidin-1-yl)prop-2-en-1-one], for which the values for the IC50 in experiment [1] and in experiment [2] were 2.61 µM and 1.23 µM, respectively.
Taken in the same sequence, the figures for `C=CC(=O)N1C[C@@H](C#N)C[C@@H](Nc2ncnc3[nH]ccc23)C1` [Example 58, (3S,5R)-5-((7H-pyrrolo[2,3-d]pyrimidin-4-yl)amino)-1-acryloylpiperidine-3-carbonitrile] were 7.84 µM and 2.79 µM.
As to `C=CC(=O)N1C[C@H](O)C[C@@H](Nc2ncnc3[nH]ccc23)C1` [Example 60, 1-((3R,5R)-3-((7H-Pyrrolo[2,3-d]pyrimidin-4-yl)amino)-5-hydroxypiperidin-1-yl)prop-2-en-1-one], the IC50 is 2.78 µM in experiment [1] and 2.47 µM in experiment [2] (Homo sapiens, PBMC).
The corresponding values for `C=CC(=O)N1C[C@H](Nc2ncnc3[nH]cc(C#N)c23)CC[C@@H]1C` [Example 163, 4-{[(3R,6S)-1-Acryloyl-6-methylpiperidin-3-yl]amino}-7H-pyrrolo[2,3-d]pyrimidine-5-carbonitrile] are 0.522 µM and 0.109 µM.
On to `C=CC(=O)N1C[C@H](Nc2ccnc3[nH]cc(C#N)c23)CC[C@@H]1C` [Example 165, 4-{[(3R,6S)-1-Acryloyl-6-methylpiperidin-3-yl]amino}-1H-pyrrolo[2,3-b]pyridine-3-carbonitrile], for which the IC50 in experiment [1] amounted to 0.38 µM; in experiment [2] (Homo sapiens, PBMC), 0.0406 µM.
